This is an account of results in patent US20260335514A1, “Drug-Coated Medical Devices & Methods of Making” (Bard Peripheral Vascular, Inc., priority 2022, published 2026).

Data set [1] deals with femoral arteries of porcine model. Description: morphometry of stented arteries (Example 4). The conditions noted are these: for amount of restenosis observed (in words): 60 and 90 days. It counts as in vivo. The method, then: (§1) In Example 4, formulations for stent drug coatings were prepared as subsequently described, followed by obtaining 7, 28, 60, and 90 days histological data from in vivo studies when implanted in femoral arteries of porcine model.
(§2) Five total formulations were used: a control of PVDF only, prepared at a concentration of 5 mg/mL in a solution of 90% acetone and 10% cyclohexane; a colchicine coating, prepared in a 5:1 PVDF: colchicine ratio with 5 mg/mL provided to 90% acetone and 10% DMF; a roflumilast coating at a 5:1 PVDF:roflumilast ratio, with […] provided to a 42.5% EtOAc, 50% acetone, and 7.5% DMF solution; a tadalafil coating prepared at 3:1 PVDF:tadalafil, provided at 5 mg/mL in a solution of 30% EtOAc, 60% acetone, and 10% DMF; and a sunitinib coating provided at 3:1 PVDF:sunitinib malate, prepared at 5 mg/mL in a solution of 60% MeOAc, 30% acetone, and 10% DMF. Coatings were provided to 5×40 mm and 6×40 mm stents. Loading concentrations were assessed prior to and after ETO (ethylene oxide) sterilization and no discernable change was noted by the process.
(§3) Histological studies were then performed at 60 and 90 days.

For data set [2] the test system is unchanged. Description: histology of stented arteries (Example 4). Type of data set: in vivo. The method, then: as §1, §2, §3
The test system is the same in data set [3]. Description: in vivo pharmacokinetics of drug coated stents (Example 4). To be noted: 7 and 28 days after implantation; preliminary; FIG. 10. The method, then:
as §1, §2
FIG. 10 sets forth some preliminary pharmacokinetic data obtained from the prepared stents at 7 and 28 days after implantation within the pigs.

The next data set can be described thus: solubility in PBS. Type of data set: physicochemical. The method, then:
Drug coatings with crystalline forms of tyrosine kinase inhibitors were also examined. Sunitinib was again chosen as the candidate drug and crystal pamoate salts were prepared by recrystaliization in ethanol or ethanol and DMF for a hemi-pamoate.

The conditions of data set [4]: octanol-water; cited from earlier work.
For data set [5] the following is noted: cited from earlier work.

By log P is commonly meant a log measure of how a compound divides between an organic and an aqueous phase.

Structures are written as SMILES. ≈ marks a conversion by molar mass, not a printed value. Where “and” joins values, the source holds several entries; their conditions need not be identical. Equal entries are not always repeated. Where two headings read alike, the source gives them in different places.

As to `COc1cc2c(c(OC)c1OC)-c1ccc(OC)c(=O)cc1[C@@H](NC(C)=O)CC2` [Colchicine, colchicine], in data set [1] (pig, in vivo), the “% Stenosis” value was 67.45% and 81.83%; the “Medial Area” value came to 1.22; the “percentage of stenosis (in words)” value is on record as “seemingly accelerated amount of stenosis”. In addition, in data set [2] (pig, in vivo), the “Inflammation Score” value was determined as 3.06; the Restenosis % area is 67.45% and 81.83%.
Turning to `O=C(Nc1c(Cl)cncc1Cl)c1ccc(OC(F)F)c(OCC2CC2)c1` [Roflumilast, roflumilast], the “pharmacokinetic data versus target (in words)” value in data set [3] is given as “expected target ranges”. Also, in data set [2] (60 days), the Fibrin % is recorded as 16.65%, the Giant cell % was determined as 0.49%, the “Inflammation Score” value turned out to be 0.69 and the PGs/Collagen score worked out at 0.75. In data set [2] (60 days), this compound showed a Restenosis % area of 40.45%. In data set [2] (90 days), the Fibrin % is 1.0%, the Giant cell % is listed as 0.0%, the “Inflammation Score” value turned out to be 0.56 and the PGs/Collagen score was found to be 1.44. In addition, the Restenosis % area in data set [2] (90 days) is 30.69%.
As for `CCN(CC)CCNC(=O)c1c(C)[nH]c(/C=C2\C(=O)Nc3ccc(F)cc32)c1C` [Sunitinib as a free base, sunitinib], the “solubility in PBS” value in the data set “solubility in PBS” came out at 26.4 µM (≈ 10.5 µg/mL).
Take `CCN(CC)CCNC(=O)c1c(C)[nH]c(/C=C2\C(=O)Nc3ccc(F)cc32)c1C` [Sunitinib, sunitinib]: the “amount of restenosis observed (in words)” value in data set [1] is given as “improvements in the amount of restenosis observed”. Besides, the “percentage of stenosis (in words)” value in data set [1] (60 days) is reported as “similar”. Further, in data set [2] (60 days), the Fibrin % stood at 33.17%, the Giant cell % is reported as 4.14%, the “Inflammation Score” value is reported as 1.19 and the PGs/Collagen score was 1.06. The same compound registered a Restenosis % area in data set [2] (60 days) of 33.76%. For the same compound, in data set [2] (90 days), the Fibrin % was determined as 1.0%, the Giant cell % was 2.03%, the “Inflammation Score” value stood at 0.25 and the PGs/Collagen score came out at 1.31. Further, the Restenosis % area in data set [2] (90 days) worked out at 30.77%.
With `CN1CC(=O)N2[C@H](c3ccc4c(c3)OCO4)c3[nH]c4ccccc4c3C[C@@H]2C1=O` [Tadalafil, tadalafil], the “amount of restenosis observed (in words)” value in data set [1] is given as “improvements in the amount of restenosis observed”. In addition, the “percentage of stenosis (in words)” value in data set [1] (60 days) is on record as “similar”. For the same compound, the “pharmacokinetic data versus target (in words)” value in data set [3] is “lower than expected”. Moreover, in data set [2] (60 days), the Fibrin % came out at 26.69%, the Giant cell % stood at 7.26%, the “Inflammation Score” value amounted to 1.19 and the PGs/Collagen score amounted to 1.44. The Restenosis % area in data set [2] (60 days) was 35.38%. In addition, in data set [2] (90 days), the Fibrin % came out at 1.31%, the Giant cell % is 30.12%, the “Inflammation Score” value was found to be 1.94 and the PGs/Collagen score is recorded as 1.38. The Restenosis % area in data set [2] (90 days) is recorded as 27.4%.
Turning to `CCN(CC)CCNC(=O)c1c(C)[nH]c(/C=C2\C(=O)Nc3ccc(F)cc32)c1C` [hemi-pamoate], the “solubility in PBS” value in “solubility in PBS” amounted to 6.02 µM (≈ 2.4 µg/mL).
Regarding `CC(=O)O[C@H]1C(=O)[C@@]2(C)[C@H]([C@H](OC(=O)c3ccccc3)[C@]3(O)C[C@H](OC(=O)[C@H](O)[C@@H](NC(=O)c4ccccc4)c4ccccc4)C(C)=C1C3(C)C)[C@]1(OC(C)=O)CO[C@@H]1C[C@@H]2O` [paclitaxel], in data set [4], the lipophilicity (log P) is 7.4.
As for `CCN(CC)CCNC(=O)c1c(C)[nH]c(/C=C2\C(=O)Nc3ccc(F)cc32)c1C` [pamoate crystal], the “solubility in PBS” value in “solubility in PBS” came out at 9.6 µM.
Consider `CCN(CC)CCNC(=O)c1c(C)[nH]c(/C=C2\C(=O)Nc3ccc(F)cc32)c1C` [sunitinib malate], for which the “solubility in PBS” value in “solubility in PBS” (listed as malate salt) was determined as 1231 µM. Besides, in data set [5], the water solubility result is reported as “about 25 mg/mL”.
